Reference: patent US10870647B2, “Imidazopyridine derivative, method for preparing same, and pharmaceutical composition containing same as active ingredient for preventing or treating cancer” (DAEGU-GYEONGBUK MEDICAL INNOVATION FOUNDATION, priority 2016, dated 2020)
Where two headings read alike, the source gives them in different places.

What was measured:
Assay in all cases: Kinase selectivity, scanMAX Kinase assay panel (DiscoverX), % control at 1 uM
Assay type in all cases: binding
[1] = target: T1, scanMAX Kinase assay panel (Homo sapiens, UniProt P09619); details: PDGFRB; 1 uM; read-out: Percent Control (%)
T1 construct: purchased DiscoverX
T1 sequence (P09619 33-1106): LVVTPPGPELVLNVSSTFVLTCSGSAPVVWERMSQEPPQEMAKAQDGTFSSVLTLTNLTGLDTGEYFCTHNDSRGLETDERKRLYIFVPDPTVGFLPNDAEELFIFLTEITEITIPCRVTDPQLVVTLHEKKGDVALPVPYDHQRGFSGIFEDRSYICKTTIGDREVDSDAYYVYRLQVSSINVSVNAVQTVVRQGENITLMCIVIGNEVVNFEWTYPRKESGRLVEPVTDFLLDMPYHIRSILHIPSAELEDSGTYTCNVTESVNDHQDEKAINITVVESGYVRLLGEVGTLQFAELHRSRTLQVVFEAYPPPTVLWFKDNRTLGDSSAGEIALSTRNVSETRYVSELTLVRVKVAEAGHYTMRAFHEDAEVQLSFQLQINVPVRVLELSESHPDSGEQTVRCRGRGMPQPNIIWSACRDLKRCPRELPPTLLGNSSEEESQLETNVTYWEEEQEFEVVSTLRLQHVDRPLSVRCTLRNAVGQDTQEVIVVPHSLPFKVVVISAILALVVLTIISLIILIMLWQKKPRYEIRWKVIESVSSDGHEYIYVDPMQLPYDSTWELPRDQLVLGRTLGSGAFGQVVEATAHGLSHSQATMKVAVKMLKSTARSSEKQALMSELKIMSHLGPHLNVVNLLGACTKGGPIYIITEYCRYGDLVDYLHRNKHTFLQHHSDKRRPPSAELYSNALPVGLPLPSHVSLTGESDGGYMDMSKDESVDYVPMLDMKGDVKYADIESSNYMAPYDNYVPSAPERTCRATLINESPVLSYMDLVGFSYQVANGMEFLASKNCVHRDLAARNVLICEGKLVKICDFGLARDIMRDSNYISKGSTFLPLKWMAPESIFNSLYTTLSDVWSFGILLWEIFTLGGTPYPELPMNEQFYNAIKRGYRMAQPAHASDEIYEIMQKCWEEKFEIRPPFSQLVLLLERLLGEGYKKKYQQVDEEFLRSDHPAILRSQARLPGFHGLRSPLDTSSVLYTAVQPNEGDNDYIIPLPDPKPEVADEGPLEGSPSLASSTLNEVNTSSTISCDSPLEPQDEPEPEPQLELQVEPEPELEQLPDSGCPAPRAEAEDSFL
How it was run: (§1)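 Binding across the scanMAX kinase panel was tested at 1 uM compound. % control = (compound − positive control)/(negative control − positive control) × 100; below 35 counted as active.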

[2] = target: T2, scanMAX Kinase assay panel (Homo sapiens, UniProt Q8TD19); details: NEK9; 1 uM; read-out: Percent Control (%)
T2 construct: purchased DiscoverX
T2 sequence (Q8TD19 1-979): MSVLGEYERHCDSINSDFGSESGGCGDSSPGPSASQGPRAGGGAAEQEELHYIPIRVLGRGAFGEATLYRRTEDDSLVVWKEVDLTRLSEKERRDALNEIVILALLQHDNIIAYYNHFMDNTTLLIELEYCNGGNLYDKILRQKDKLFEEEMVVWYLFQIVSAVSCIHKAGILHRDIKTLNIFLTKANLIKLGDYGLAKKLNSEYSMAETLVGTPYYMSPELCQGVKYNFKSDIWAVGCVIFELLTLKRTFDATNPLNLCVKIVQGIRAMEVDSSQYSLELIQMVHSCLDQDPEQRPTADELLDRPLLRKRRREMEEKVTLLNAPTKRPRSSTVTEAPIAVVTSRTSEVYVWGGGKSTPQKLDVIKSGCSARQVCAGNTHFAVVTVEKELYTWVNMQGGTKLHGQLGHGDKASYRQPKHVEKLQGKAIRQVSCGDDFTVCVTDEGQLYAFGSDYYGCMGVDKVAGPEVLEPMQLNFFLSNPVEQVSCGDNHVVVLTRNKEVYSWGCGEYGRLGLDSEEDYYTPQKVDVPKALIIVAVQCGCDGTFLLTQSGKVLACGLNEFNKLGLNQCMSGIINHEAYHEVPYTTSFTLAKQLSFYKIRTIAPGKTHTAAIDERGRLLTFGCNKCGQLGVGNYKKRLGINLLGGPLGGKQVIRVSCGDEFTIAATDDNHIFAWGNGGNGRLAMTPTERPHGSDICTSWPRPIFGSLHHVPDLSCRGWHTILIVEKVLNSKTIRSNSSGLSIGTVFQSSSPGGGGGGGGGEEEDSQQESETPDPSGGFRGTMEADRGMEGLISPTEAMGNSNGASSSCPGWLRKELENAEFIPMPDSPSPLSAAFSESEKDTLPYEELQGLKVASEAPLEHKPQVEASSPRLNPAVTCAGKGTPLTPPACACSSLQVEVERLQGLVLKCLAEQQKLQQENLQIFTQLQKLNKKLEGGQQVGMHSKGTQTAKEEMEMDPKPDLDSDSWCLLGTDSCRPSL
How it was run: as §1

[3] = target: T3, scanMAX Kinase assay panel (Homo sapiens, UniProt P00519, H396P); details: 1 uM, read-out: Percent Control (%)
T3 construct: purchased DiscoverX
How it was run: as §1

[4] = target: T4, scanMAX Kinase assay panel (Homo sapiens, UniProt Q13164); details: ERK5; 1 uM; read-out: Percent Control (%)
T4 construct: purchased DiscoverX
T4 sequence (Q13164 whole entry): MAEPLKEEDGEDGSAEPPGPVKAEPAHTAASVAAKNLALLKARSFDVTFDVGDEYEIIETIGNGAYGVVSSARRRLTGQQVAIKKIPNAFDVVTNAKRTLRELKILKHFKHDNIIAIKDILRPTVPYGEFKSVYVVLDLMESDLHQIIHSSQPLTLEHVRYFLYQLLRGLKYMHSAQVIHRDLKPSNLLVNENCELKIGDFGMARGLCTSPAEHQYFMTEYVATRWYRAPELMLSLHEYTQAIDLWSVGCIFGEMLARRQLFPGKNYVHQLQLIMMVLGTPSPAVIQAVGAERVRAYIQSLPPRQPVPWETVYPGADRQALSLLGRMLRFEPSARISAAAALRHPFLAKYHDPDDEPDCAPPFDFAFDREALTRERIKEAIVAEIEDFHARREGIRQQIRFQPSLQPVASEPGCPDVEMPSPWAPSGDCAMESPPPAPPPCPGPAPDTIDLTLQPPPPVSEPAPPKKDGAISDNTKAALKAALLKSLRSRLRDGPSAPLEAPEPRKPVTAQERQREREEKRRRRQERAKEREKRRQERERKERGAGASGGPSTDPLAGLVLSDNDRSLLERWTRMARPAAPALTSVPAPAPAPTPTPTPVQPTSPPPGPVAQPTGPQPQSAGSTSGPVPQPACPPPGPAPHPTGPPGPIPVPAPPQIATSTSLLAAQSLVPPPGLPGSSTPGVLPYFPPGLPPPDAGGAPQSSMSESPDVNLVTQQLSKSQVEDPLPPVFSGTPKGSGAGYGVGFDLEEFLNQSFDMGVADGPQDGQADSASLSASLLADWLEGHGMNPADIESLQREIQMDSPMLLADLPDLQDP
How it was run: as §1

[5] = target: T5, scanMAX Kinase assay panel (Homo sapiens, UniProt P42336, H1047L); details: PIK3CA (H1047L); 1 uM; read-out: Percent Control (%)
T5 construct: purchased DiscoverX
T5 sequence (P42336 whole entry H1047L): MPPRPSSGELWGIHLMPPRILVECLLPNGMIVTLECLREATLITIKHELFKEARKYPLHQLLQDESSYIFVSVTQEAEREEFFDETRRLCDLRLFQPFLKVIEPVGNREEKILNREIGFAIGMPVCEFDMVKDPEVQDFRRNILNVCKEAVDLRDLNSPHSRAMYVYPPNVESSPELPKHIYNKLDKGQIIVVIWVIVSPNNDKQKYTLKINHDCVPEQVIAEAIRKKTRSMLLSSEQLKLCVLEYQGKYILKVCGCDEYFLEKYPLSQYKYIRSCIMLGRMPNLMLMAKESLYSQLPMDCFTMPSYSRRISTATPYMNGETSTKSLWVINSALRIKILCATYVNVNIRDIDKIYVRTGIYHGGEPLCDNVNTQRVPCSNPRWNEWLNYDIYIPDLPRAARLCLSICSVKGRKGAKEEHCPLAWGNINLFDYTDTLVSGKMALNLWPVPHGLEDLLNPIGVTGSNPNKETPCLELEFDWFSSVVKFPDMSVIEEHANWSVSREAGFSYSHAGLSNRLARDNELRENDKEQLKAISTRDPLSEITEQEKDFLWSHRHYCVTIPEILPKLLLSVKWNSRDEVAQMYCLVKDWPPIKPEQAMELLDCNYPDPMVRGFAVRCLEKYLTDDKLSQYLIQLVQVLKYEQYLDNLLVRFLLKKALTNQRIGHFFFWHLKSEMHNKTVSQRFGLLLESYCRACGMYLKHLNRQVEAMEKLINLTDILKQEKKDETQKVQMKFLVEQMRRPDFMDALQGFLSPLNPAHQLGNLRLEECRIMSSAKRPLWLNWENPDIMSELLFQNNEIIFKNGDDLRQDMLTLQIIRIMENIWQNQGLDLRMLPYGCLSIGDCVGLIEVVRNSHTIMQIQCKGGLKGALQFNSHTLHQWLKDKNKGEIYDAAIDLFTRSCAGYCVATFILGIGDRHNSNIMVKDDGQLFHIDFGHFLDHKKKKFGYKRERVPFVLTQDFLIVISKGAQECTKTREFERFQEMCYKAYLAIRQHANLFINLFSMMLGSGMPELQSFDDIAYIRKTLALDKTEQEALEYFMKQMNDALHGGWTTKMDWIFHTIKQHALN
How it was run: as §1

[6] = target: T6, scanMAX Kinase assay panel (Homo sapiens, UniProt Q12852); details: DLK; 1 uM; read-out: Percent Control (%)
T6 construct: purchased DiscoverX
T6 sequence (Q12852 1-859): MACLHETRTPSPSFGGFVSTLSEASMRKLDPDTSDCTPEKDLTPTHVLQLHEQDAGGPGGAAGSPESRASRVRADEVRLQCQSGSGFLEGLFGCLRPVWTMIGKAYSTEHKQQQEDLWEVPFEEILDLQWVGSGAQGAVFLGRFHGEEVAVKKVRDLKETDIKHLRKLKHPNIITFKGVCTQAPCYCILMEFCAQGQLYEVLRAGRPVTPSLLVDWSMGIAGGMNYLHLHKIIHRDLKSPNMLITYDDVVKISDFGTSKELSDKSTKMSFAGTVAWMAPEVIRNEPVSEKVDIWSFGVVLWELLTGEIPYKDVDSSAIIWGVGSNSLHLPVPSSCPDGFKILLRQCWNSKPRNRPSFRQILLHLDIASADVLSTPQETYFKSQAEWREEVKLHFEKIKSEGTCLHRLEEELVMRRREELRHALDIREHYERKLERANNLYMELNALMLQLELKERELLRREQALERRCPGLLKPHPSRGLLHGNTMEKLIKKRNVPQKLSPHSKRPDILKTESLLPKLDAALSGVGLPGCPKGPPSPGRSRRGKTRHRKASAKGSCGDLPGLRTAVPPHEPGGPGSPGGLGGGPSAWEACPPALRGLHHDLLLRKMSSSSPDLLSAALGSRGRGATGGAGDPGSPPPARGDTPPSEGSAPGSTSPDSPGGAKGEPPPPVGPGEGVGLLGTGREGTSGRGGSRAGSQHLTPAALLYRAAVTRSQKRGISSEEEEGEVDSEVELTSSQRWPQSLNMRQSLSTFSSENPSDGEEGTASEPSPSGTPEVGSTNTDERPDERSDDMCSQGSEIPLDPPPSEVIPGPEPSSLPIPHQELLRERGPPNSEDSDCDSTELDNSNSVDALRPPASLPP
How it was run: as §1

[7] = target: T7, scanMAX Kinase assay panel (Homo sapiens, UniProt P0C1S8); details: WEE2; 1 uM; read-out: Percent Control (%)
T7 construct: purchased DiscoverX
T7 sequence (P0C1S8 whole entry): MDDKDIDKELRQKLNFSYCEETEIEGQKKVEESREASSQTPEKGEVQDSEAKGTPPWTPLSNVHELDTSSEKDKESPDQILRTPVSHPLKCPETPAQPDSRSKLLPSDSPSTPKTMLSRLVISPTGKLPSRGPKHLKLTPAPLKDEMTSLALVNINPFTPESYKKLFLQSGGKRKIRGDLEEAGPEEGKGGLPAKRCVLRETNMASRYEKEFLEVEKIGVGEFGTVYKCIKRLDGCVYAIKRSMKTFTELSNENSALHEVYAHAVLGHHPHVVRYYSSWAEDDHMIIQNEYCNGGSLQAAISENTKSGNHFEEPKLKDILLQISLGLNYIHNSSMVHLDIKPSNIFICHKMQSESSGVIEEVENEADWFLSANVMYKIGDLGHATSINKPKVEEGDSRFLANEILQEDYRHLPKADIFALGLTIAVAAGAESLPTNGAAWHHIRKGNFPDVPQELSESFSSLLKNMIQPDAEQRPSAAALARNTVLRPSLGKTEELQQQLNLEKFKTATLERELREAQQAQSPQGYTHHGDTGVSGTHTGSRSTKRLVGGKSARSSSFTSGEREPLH
How it was run: as §1

## Cc1ccc(NC(=O)C2(C(=O)Nc3ccc(F)cc3)CC2)cc1C#Cc1cnc2c(Nc3cnn(C(C)C)c3)cccn12 [Example 78]
[1]
  remaining binding at 1 µM: 0%
[2]
  remaining binding at 1 µM: 100%
[3]; ABL1 (H396P)-nonphosphorylated
  remaining binding at 1 µM: 4%
[3]; ABL1 (H396P)-phosphorylated
  remaining binding at 1 µM: 64%
[4]
  remaining binding at 1 µM: 100%
[5]
  remaining binding at 1 µM: 92%
[6]
  remaining binding at 1 µM: 100%
[7]
  remaining binding at 1 µM: 100%

## Cc1cn(-c2cc(NC(=O)c3ccc(C)c(C#Cc4cnc5c(Nc6cnn(C)c6)cccn45)c3)cc(C(F)(F)F)c2)cn1 [Example 12, 4-methyl-N-(3-(4-methyl-1H-imidazol-1-yl)-5-(trifluoromethyl)phenyl)-3-((8-((1-methyl-1H-pyrazol-4-yl)amino)imidazo[1,2-a]pyridin-3-yl)ethynyl)benzamide]
[1]
  remaining binding at 1 µM: 1%
[2]
  remaining binding at 1 µM: 86%
[3]; ABL1 (H396P)-nonphosphorylated
  remaining binding at 1 µM: 0%
[3]; ABL1 (H396P)-phosphorylated
  remaining binding at 1 µM: 10%
[4]
  remaining binding at 1 µM: 90%
[5]
  remaining binding at 1 µM: 100%
[6]
  remaining binding at 1 µM: 100%
[7]
  remaining binding at 1 µM: 80%

## Cc1ccc(C(=O)Nc2ccc(CN3CCN(C)CC3)c(C(F)(F)F)c2)cc1C#Cc1cnc2c(Nc3cnn(C)c3)cccn12 [Example 1, 4-methyl-3-((8-((1-methyl-1H-pyrazol-4-yl)amino)imidazo[1,2-a]pyridin-3-yl)ethynyl)-N-(4-((4-methylpiperazin-1-yl)methyl)-3-(trifluoromethyl)phenyl)benzamide]
[1]
  remaining binding at 1 µM: 0%
[2]
  remaining binding at 1 µM: 6%
[3]; ABL1 (H396P)-nonphosphorylated
  remaining binding at 1 µM: 1%
[3]; ABL1 (H396P)-phosphorylated
  remaining binding at 1 µM: 0%
[4]
  remaining binding at 1 µM: 78%
[5]
  remaining binding at 1 µM: 100%
[6]
  remaining binding at 1 µM: 29%
[7]
  remaining binding at 1 µM: 60%
